Laboratory results published in patent publication US10100077B2, “6-aryl-9-glycosylpurines and use thereof” (UNIVERZITA PALACKEHO V OLOMOUCI, priority 2014, dated 2018).

Columns and labels:
[1] = system: skin fibroblasts BJ and keratinocytes HaCaT; experiment: SRB in vitro toxicity test; format: cell-based; conditions: 72 hour treatment, maximal concentration 50 microM
Protocol: SRB (sulforhodamine B) assay is a standard toxicity test based on a photometric measurement of the cellular protein content after the staining with sulphorhodamine B. Using the assay, the effects of 72 hour treatments with several concentrations of the compounds (sixfold dilution, maximal concentration=50 microM) on viability of skin fibroblasts BJ and keratinocytes HaCaT were evaluated. About 5,000 cells were seeded per well of a 96-well plate 24 hours before the treatment. DMSO vehiculum was used as a negative non-toxic control. 6-benzylaminopurine riboside a 6-furfurylaminopurin riboside were used as positive toxic controls. After three days the medium was removed and the cells fixed with 10% (wt/vol) trichloroacetic acid. After the extensive washing in distilled water, 0.4% (wt/vol) solution of SRB in acetic acid was added and the fixed cells were stained for 30 minutes. The unbound stain was washed away by distilled water and the bound SRB was solubilized in unbuffered 10 mM Tris base. Absorbance was measured at 564 nm. IC50 values were calculated from dose-response curves.

[2] = system: skin fibroblasts BJ and keratinocytes HaCaT; experiment: MTT in vitro cytotoxicity test for skin cells; format: cell-based; conditions: for IC50: MTT, 72 hour treatment, BJ and HaCaT, maximal concentration 50 microM
Protocol: MTT assay is a standard test of toxicity based on photometric measurement of the ability of metabolically active cells to reduce MTT (3-(4,5-dimethylthiazol-2-yl)-2,5-diphenyltetrazolium bromide). Using the assay, the effects of 72 hour treatments with several concentrations of the compounds (sixfold dilution, maximal concentration=50 microM) on viability of skin fibroblasts BJ and keratinocytes HaCaT were evaluated. About 5,000 cells were seeded per well of a 96-well plate 24 hours before the treatment. DMSO vehiculum was used as a negative control. After 72 hour treatment, new medium with MTT (Sigma, M2128) was added to a final concentration of 0.5 mg/ml. After 3 hours, medium was removed and resulting formazan in the cells was dissolved in DMSO. The absorbance was measured at 570 nm (640 nm reference wavelength). The IC50 values were calculated from the dose-response curves. 6-Benzylaminopurine riboside and 6-furfurylaminopurine riboside were used as positive controls they were toxic in the MTT test.

[3] = system: mousse fibroblasts (NIH3T3); experiment: Calcein AM cytotoxicity assay, NIH3T3; format: cell-based, mouse; conditions: 72 hrs
From the text: (§1) One of the parameters used as the base for cytotoxic analysis is metabolic activity of viable cells, such as microtiter assay, which uses the Calcein AM, is now widely used to quantitate cell proliferation and cytotoxicity. The quantity of reduced Calcein AM corresponds to the number of viable cells in culture. The cell lines of breast cancer (MCF-7), mousse fibroblasts (NIH3T3), human erythromleukemia (K562) were used for routine screening of cytotoxicity of the compounds. The cells were maintened in Nunc/Corning 80 cm^2 plastic bottles and grown in media for cell culture (DMEM containing 5 g/l of glucose, 2 mM of glutamin, 100 U/ml of penicilin, […] of streptomycin, 10% of fetal bovine serum and sodium hydrogencarbonate). Cell suspensions were diluted according to cell types and according to expected final cell density (10^4 of cells per well according to characteristics of cell growth), pipetted 80 μl of cell suspension on 96-well microtiter plates. Innoculates were stabilized by 24 hrs preincubation at 37° C. in CO2. Particular concentrations of tested compounds were added in time zero as 20 μl aliquotto wells of microtiter plates. Usually, the compounds were diluted into six concentrations in four-fold dilution series. In routine testing, the highest well concentration was 166.7 μM, of change dependent on the substance. All drug concentrations were examined in duplicates. The incubation of cells with tested derivatives lasted 72 hrs at 37° C., 100% humidity and in the atmosphere of CO2. At the end of the incubation period, the cells were tested and analysed according to the addition of Calcein AM (Molecular probes) solution and the incubation lasted for next 1 hour. Fluorescence (FD) was measured using Labsystem FIA reader Fluorskan Ascent (Microsystems). The survival of tumor cells (The tumor cell survival-TCS) was counted according to equation: […]=(FDwell with derivative/FDcontrol well)×100%. The value of GI50, that is equal to the concentration of compound at which 50% of tumour cells are terminated. To evaluate the antitumor activity was tested toxicity of new derivatives on panel of cell lines of different histogenetic and species origin (Tab. 7, G150 concentration given in μM). […] Effective derivatives killed tumor cells in concentrations close to 0.1 to 50. None of the newly prepared compounds only reached the value.

[4] = system: human erythromleukemia (K562); experiment: Calcein AM cytotoxicity assay, K562; format: cell-based; conditions: 72 hrs
From the text: as §1

breast cancer (MCF-7) = experiment: Calcein AM cytotoxicity assay, MCF-7; format: cell-based; conditions: 72 hrs
From the text: as §1

[5] = system: detached leaf segments of Triticum aestivum cv. Hereward; experiment: Senescence bioassay on wheat leaf segments (chlorophyll retention); conditions: for activity (%) [10^−4 mol · l^−1 BAP = 100%]: chlorophyll retention at maximum effective concentration, 96 h dark; for maximum effective concentration: 96 h in the dark at 25° C.
Protocol: Seeds of winter wheat, Triticum aestivum cv. Hereward, were washed under running water for 24 hours and then sown on vermiculite soaked with Knop's solution. They were placed in the growth chamber at 25° C. with a 16/8 h light period at 50 μmol·m^−2·s^−1. After 7 days, the first leaf was fully developed and the second leaf had started to grow. A tip section of the first leaf, approximately 35 mm long, was removed from 5 seedlings and trimmed slightly to a combined weight of 100 mg. The basal ends of the five leaf tips were placed in the wells of a microtiter polystyrene plate containing 150 μL, of the tested derivative solution each. The entire plate was inserted into a plastic box lined with paper tissues soaked in distilled water to prevent leaf sections from drying out. After 96 h incubation in the dark at 25° C., the leaves were removed and chlorophyll extracted by heating at 80° C. for 10 min in 5 mL of 80% ethanol (v/v). The sample volume was then restored to 5 mL by the addition of 80% ethanol (v/v). The absorbance of the extract was recorded at 665 nm. In addition, chlorophyll extracts from fresh leaves and leaf tips incubated in deionised water were measured. The results are means of five replicates and the entire test was repeated twice. […] The compounds to be tested were dissolved in dimethylsulfoxide (DMSO) and the solution brought up to 10^−3M with distilled water. This stock solution was further diluted with the respective media used for the biotest to a concentration ranging from 10^−8M to 10^−4M. […] The activity obtained for 10^−4 M of BAP was postulated as 100%.

With `Nc1cccc(CNc2ncnc3c2ncn3[C@@H]2O[C@H](CO)[C@@H](O)[C@@H]2O)c1` [6-(3-aminobenzylamino)-9-β-D-arabinofuranosylpurine] the IC50 ([1]; Homo sapiens) was > 50 µM and the IC50 ([2]; Homo sapiens) was > 50 µM.
For `OC[C@H]1O[C@@H](n2cnc3c(NCc4ccco4)ncnc32)C[C@@H]1O` [6-(furfurylamino)-9-β-D-2′-deoxyribofuranosylpurine], the IC50 [1] was > 50 µM and the IC50 [2] was > 50 µM.
For “3-chloro-4-fluorobenzylamino-9-β-D-arabinofuranosylpurine”, the GI50 [3] was > 100 µM, the GI50 [4] was > 100 µM and the GI50 (breast cancer (MCF-7)) was > 100 µM.
`COc1ccc(CNc2ncnc3c2ncn3[C@@H]2O[C@H](CO)[C@@H](O)[C@@H]2O)cc1OC` [6-(3,4-dimethoxybenzylamino)-9-β-D-arabinofuranosylpurine] was tested, and the “activity (%) [10^−4 mol · l^−1 BAP = 100%]” value (shortened to “activity (%)”) [5] was 147 ± 6%.
In the case of `OC[C@H]1O[C@@H](n2cnc3c(NCc4cccc(I)c4)ncnc32)[C@@H](O)[C@@H]1O` [6-(3-iodobenzylamino)-9-β-D-arabinofuranosylpurine], the “activity (%)” value [5] is reported as 198 ± 4%, the IC50 ([1]; Homo sapiens) is reported as > 50 µM and the IC50 ([2]; Homo sapiens) is reported as > 50 µM.
With `COc1cccc(CNc2ncnc3c2ncn3[C@@H]2O[C@H](CO)[C@@H](O)[C@@H]2O)c1OC` [6-(2,3-dimethoxybenzylamino)-9-β-D-arabinofuranosylpurine] the IC50 ([1]; Homo sapiens) was > 50 µM and the IC50 ([2]; Homo sapiens) was 49 µM.
`OC[C@H]1OC(n2cnc3c(NCc4ccco4)ncnc32)[C@H](O)[C@@H]1O` (stereo partly shown) [6-furfurylamino-9-ribosylpurine, reference compound] was tested, and the IC50 ([1]; Homo sapiens) was ≤ 3 µM, the IC50 ([2]; Homo sapiens) was ≤ 3 µM and the “toxicity in the MTT test” value ([2]; positive controls) was “toxic”.
For `OC[C@H]1O[C@@H](n2cnc3c(NCc4ccc(Br)cc4)ncnc32)[C@@H](O)[C@@H]1O` [6-(4-bromobenzylamino)-9-β-D-arabinofuranosylpurine], the “activity (%)” value [5] was 176 ± 11%.
In the case of `OC[C@H]1O[C@@H](n2cnc3c(NCc4cccc(O)c4)ncnc32)C[C@@H]1O` [3-hydroxybenzylamino-9-β-D-2′-deoxyribosylpurine], the GI50 [3] is reported as > 100 µM, the GI50 [4] is reported as > 100 µM and the GI50 (breast cancer (MCF-7)) is reported as > 100 µM.
In the case of `COc1ccc(CNc2ncnc3c2ncn3[C@@H]2O[C@H](CO)[C@@H](O)[C@H]2O)cc1OC` [6-(3,4-dimethoxybenzylamino)-9-riboside, reference compound], the maximum effective concentration [5] is reported as 10^−4 mol · l^−1 and the “activity (%)” value [5] is reported as 47 ± 6%.
“2-chloro-4-fluorobenzylamino-9-β-D-arabinofuranosylpurine” was tested, and the GI50 [3] was > 100 µM, the GI50 [4] was > 100 µM and the GI50 (breast cancer (MCF-7)) was > 100 µM.
In the case of `OC[C@H]1O[C@@H](n2cnc3c(NCc4cccc(Br)c4)ncnc32)[C@@H](O)[C@@H]1O` [6-(3-bromobenzylamino)-9-β-D-arabinofuranosylpurine], the “activity (%)” value [5] is reported as 198 ± 10%.
For `OC[C@H]1O[C@@H](n2cnc3c(NCc4cccc(Br)c4)ncnc32)[C@H](O)[C@@H]1O` [6-(3-bromobenzylamino)-9-riboside, reference compound], the maximum effective concentration [5] was 10^−4 mol · l^−1 and the “activity (%)” value [5] was 89 ± 10%.
`OC[C@H]1O[C@@H](n2cnc3c(NCc4ccccc4Br)ncnc32)[C@@H](O)[C@@H]1O` [6-(2-bromobenzylamino)-9-β-D-arabinofuranosylpurine] was tested, and the “activity (%)” value [5] was 186 ± 19%.
In the case of `OC[C@H]1O[C@@H](n2cnc3c(NCc4cccc(O)c4)ncnc32)[C@@H](O)[C@@H]1O` [6-(3-hydroxybenzylamino)-9-β-D-arabinofuranosylpurine], the IC50 ([1]; Homo sapiens) is reported as > 50 µM and the IC50 ([2]; Homo sapiens) is reported as > 50 µM.
`OC[C@H]1O[C@@H](n2cnc3c(NCc4ccc(Cl)cc4)ncnc32)[C@@H](O)[C@@H]1O` [4-chlorobenzylamino-9-β-D-arabinofuranosylpurine] was tested, and the GI50 [3] was > 100 µM, the GI50 [4] was > 100 µM and the GI50 (breast cancer (MCF-7)) was > 100 µM.
With `OC[C@H]1O[C@@H](n2cnc3c(NCc4ccc(O)cc4)ncnc32)[C@@H](O)[C@@H]1O` [4-hydroxybenzylamino-9-β-D-arabinofuranosylpurine] the GI50 [3] was 87 µM, the GI50 [4] was > 100 µM and the GI50 (breast cancer (MCF-7)) was > 100 µM.
In the case of `OC[C@H]1O[C@@H](n2cnc3c(NCc4ccc(Cl)cc4Cl)ncnc32)[C@H](O)[C@@H]1O` [6-(2,4-dichlorbenzylamino)-9-riboside, reference compound], the maximum effective concentration [5] is reported as 10^−4 mol · l^−1 and the “activity (%)” value [5] is reported as 5 ± 1%.
With `OC[C@H]1O[C@@H](n2cnc3c(NCc4cccc(I)c4)ncnc32)[C@H](O)[C@@H]1O` [6-(3-iodobenzylamino)-9-riboside, reference compound] the maximum effective concentration [5] was 10^−4 mol · l^−1 and the “activity (%)” value [5] was 58 ± 19%.
`OC[C@H]1O[C@@H](n2cnc3c(NCc4ccccc4Cl)ncnc32)[C@@H](O)[C@@H]1O` [6-(2-chlorobenzylamino)-9-β-D-arabinofuranosylpurine] was tested, and the IC50 ([1]; Homo sapiens) was > 50 µM and the IC50 ([2]; Homo sapiens) was > 50 µM.
In the case of `OC[C@H]1O[C@@H](n2cnc3c(NCc4cccc(Cl)c4)ncnc32)C[C@@H]1O` [3-chlorobenzylamino-9-β-D-2′-deoxyribosylpurine], the GI50 [3] is reported as > 100 µM, the GI50 [4] is reported as > 100 µM and the GI50 (breast cancer (MCF-7)) is reported as > 100 µM.
`COc1ccc(CNc2ncnc3c2ncn3[C@@H]2O[C@H](CO)[C@@H](O)[C@@H]2O)c(OC)c1OC` [6-(2,3,4-trimethoxybenzylamino)-9-β-D-arabinofuranosylpurine] was tested, and the IC50 ([1]; Homo sapiens) was > 50 µM and the IC50 ([2]; Homo sapiens) was 48 µM.
For `OC[C@H]1O[C@@H](n2cnc3c(NCc4ccccc4O)ncnc32)C[C@@H]1O` [6-(2-hydroxybenzylamino)-9-β-D-2′-deoxyribofuranosylpurine], the IC50 [1] was > 50 µM and the IC50 [2] was > 50 µM.
For `OC[C@H]1O[C@@H](n2cnc3c(NCc4cccc(Cl)c4)ncnc32)[C@H](O)[C@@H]1O` [6-(3-chlorobenzylamino)-9-riboside, reference compound], the maximum effective concentration [5] was 10^−4 mol · l^−1 and the “activity (%)” value [5] was 72 ± 8%.
For `OC[C@H]1O[C@@H](n2cnc3c(NCc4ccccc4F)ncnc32)[C@@H](O)[C@@H]1O` [2-fluorobenzylamino-9-β-D-arabinofuranosylpurine], the GI50 [3] was > 100 µM, the GI50 [4] was > 100 µM and the GI50 (breast cancer (MCF-7)) was 87 µM.
